The results in this text go back to patent publication US20100184708A1, “USE OF GLY-PRO-GLU-OH (GPE) AS A THERAPEUTIC AGENT” (priority 2007, published 2010).

The test system of data set [1] is HIV-1IIIB. The experiment in a line: HIV-1 antiviral assay (CPE reduction). In kind it is cell-based. The conditions noted are these: peptide 10 micrograms per ml; 6 days post-infection; MTS.
In data set [2] the test system is CEM-SS cells. Briefly: Cytotoxicity in the HIV-1 assay (MTS cell viability). The conditions noted are these: peptide 10 micrograms per ml, MTS.
In data set [3] the test system is MRC-5 cells. Briefly: Cytotoxicity testing in MRC-5 cells. Format: cell-based, human. The conditions noted are these: 6 days incubation, CellTiter 96.
Data set [4] relates to MRSA. As to conditions: 5 micrograms per ml.
The nature of data set [5]: Cytotoxicity in the HBV assay (dye uptake cell viability). In kind it is cell-based. The conditions noted are these: human, HepG2-2.2.15 cells, peptide 10 micrograms per ml, % cell control. How it is done:
HepG2-2.2.15 cells were plated in 96-well microtiter plates. After 16-24 hours the confluent monolayer of HepG2-2.2.15 cells was washed and the medium was replaced with complete medium containing test peptide—10 micrograms per ml—in duplicate. Lamivudine (3TC) was used as the positive control, while media alone was added to the cells as a negative control (virus control). Three days later the culture medium was replaced with fresh medium containing the peptide. Six days following the initial administration of the peptide, the cell culture supernatants was collected, treated with pronase and DNAse and then used in a real-time quantitative TaqMan PCR assay. The PCR-amplified HBV DNA was detected in real-time by monitoring increases in fluorescence signals that result from the exonucleolytic degradation of a quenched fluorescence probe molecule that hybridizes to the mplified HBV DNA. For each PCR amplification, a standard curve was simultaneously generated using dilutions of purified HBV DNA. Antiviral activity was calculated from the reduction in HBV DNA levels (% virus control). A novel dye uptake assay was then employed to measure cell viability, which is used to calculate toxicity (% cell control).

Data set [6] deals with Pseudomonas aeruginosa. Format: cell-based. The conditions noted are these: 5 micrograms per ml.
For data set [7], the system named is Streptococcus pneumoniae. In kind it is cell-based. As to conditions: 5 micrograms per ml.
The nature of data set [8]: Cytotoxicity testing in MRC-5 cells. Format: cell-based, human. The conditions noted are these: human, 6 days incubation, CellTiter 96, read-out: % Cell viability.
Data set [9] is described as follows: Cytotoxicity in the HIV-1 assay (MTS cell viability). The conditions noted are these: human, CEM-SS cells.

The term % inhibition denotes the percentage by which the read-out fell short of the control. A high value points to a response far below the control. One may read the viability as the share of living cells, or the viability signal relative to a control.

Regarding `Cc1cn([C@H]2C[C@H](N=[N+]=[N-])[C@@H](CO)O2)c(=O)[nH]c1=O` [AZT, reference compound], in data set [1], the “% CPE reduction in HIV-1 infected CEM-SS cells” value is given as 99%. Moreover, the “% Cell viability” value in data set [2] amounted to 97%.

With `Nc1nc(O)c2ncn(COC(CO)CO)c2n1` [Ganciclovir, reference compound], the “% Cell viability” value in [3] was 100%.

Consider `NCC(=O)N1CCC[C@H]1C(=O)N[C@@H](CCC(=O)O)C(=O)O` [IGF-I (1-3), Gly-Pro-Glu-OH], for which the “% inhibition” value in data set [4], in [6] and in data set [7] was 0.0% in each case. The compound further displayed a viability at 144 h, 10 micrograms per ml in data set [5] of 98.2%. In addition, the viability at 144 h in [8] was determined as 100%. Also, in [9], the viability at 10 micrograms per ml was determined as 100%.
